Test results taken from the supplement of paper PMC10702517.
Where a name gives a salt, the structure may show the parent alone. ± gives the standard deviation.

Assay: chemical recovery from spiked human plasma; higher = better extraction
Conditions: pooled human plasma
[1] = extraction method: SPE only (HLB 96-well)
[2] = extraction method: PES+SPE (3 d PDMS equilibration then HLB SPE)
[3] = extraction method: solvent precipitation (ACN + hexane)
[4] = extraction method: SPE only (HLB 96-well), PES comparison experiment

SMILES | chemical recovery [1] | chemical recovery [2] | chemical recovery [3] | chemical recovery [4]
c1ccc2c(c1)sc1ccccc12 [Dibenzothiophene] | 16.2 ± 6.1% |  |  | 
Oc1cc(Cl)ccc1Oc1ccc(Cl)cc1 [Diclosan] | 32.1 ± 2.6% |  | 41.7 ± 3.2% | 
COP(=O)(OC)O/C(C)=C/C(=O)N(C)C [Dicrotophos] | 37.3 ± 0.93% | 38.5 ± 3.5% | 59.3 ± 8.9% | 
C1CCC(NC2CCCCC2)CC1 [Dicyclohexylamine] | 35.2 ± 2.1% |  | 53.8 ± 6.1% | 
CCCCCCCCCC[N+](C)(C)CCCCCCCCCC [Didecyldimethylammonium] | 67.1 ± 21% |  |  | 
COCCOCCO [Diethyleneglycolmonomethylether] | 1.78 ± 2.6% |  |  | 
O=C(Nc1ccc(F)cc1F)c1cccnc1Oc1cccc(C(F)(F)F)c1 [Diflufenican] | 31 ± 3.5% |  | 52.3 ± 4.8% | 35.6 ± 6.6%
CCCCCCOC(=O)c1ccccc1C(=O)OCCCCCC [Dihexyl-phthalate] | 20.6 ± 3.2% |  |  | 
CC(C)CCCCCCOC(=O)c1ccccc1C(=O)OCCCCCCC(C)C [Diisononyl-phthalate] | 23.4 ± 7.7% |  |  | 
COC(=O)c1ccccc1C(=O)OC [Dimethylphthalate] |  | 46 ± 3.9% | 67.3 ± 4.1% | 
CN/C(=N/CC1CCOC1)N[N+](=O)[O-] (stereo not drawn) [Dinotefuran] | 27.4 ± 2.9% |  | 76.3 ± 3.7% | 
CC(C)(C)c1cc([N+](=O)[O-])cc([N+](=O)[O-])c1O [Dinoterb] |  | 48.5 ± 5% |  | 
CCOP(=S)(OCC)SCCSCC [Disulfoton] | 4.52 ± 2% |  |  | 
CC[C@H](C)[C@H]1O[C@]2(C=C[C@@H]1C)C[C@@H]1C[C@@H](C/C=C(\C)[C@@H](O[C@H]3C[C@H](OC)[C@@H](O[C@H]4C[C@H](OC)[C@@H](NC)[C@H](C)O4)[C@H](C)O3)[C@@H](C)/C=C/C=C3\CO[C@@H]4[C@H](O)C(C)=C[C@@H](C(=O)O1)[C@]34O)O2 [Emamectin-B1a] | 17.2 ± 7.2% |  |  | 
CC(C)[C@H](C(=O)O[C@H](C#N)c1cccc(Oc2ccccc2)c1)c1ccc(Cl)cc1 [Esfenvalerate] |  |  | 118 ± 16% | 
CCOc1ccc(C(C)(C)COCc2cccc(Oc3ccccc3)c2)cc1 [Etofenprox] | 4.05 ± 1.4% |  | 5.02 ± 0.29% | 
CSC1=N[C@@](C)(c2ccccc2)C(=O)N1Nc1ccccc1 [Fenamidone] | 57.8 ± 2.2% | 60.6 ± 12% | 79.4 ± 2.9% | 
CC1(C(=O)Nc2ccc(O)c(Cl)c2Cl)CCCCC1 [Fenhexamid] |  |  | 66.2 ± 1.5% | 
CC(Oc1ccc(Oc2nc3ccc(Cl)cc3o2)cc1)C(=O)O (stereo not drawn) [Fenoxaprop-P] | 26.7 ± 2.6% | 42.2 ± 5% |  | 
COP(=S)(OC)Oc1ccc(SC)c(C)c1 [Fenthion] | 59.7 ± 2.1% | 1.29 ± 0.38% |  | 47 ± 8.3%
N#CCNC(=O)c1cnccc1C(F)(F)F [Flonicamid] | 46.9 ± 1.9% | 53.1 ± 3.7% | 73.8 ± 3.3% | 
Cc1cc(C(F)(C(F)(F)F)C(F)(F)F)ccc1NC(=O)c1cccc(I)c1C(=O)NC(C)(C)CS(C)(=O)=O [Flubendiamide] | 25.7 ± 6.4% |  | 53.1 ± 4.4% | 
N#Cc1c[nH]cc1-c1cccc2c1OC(F)(F)O2 [Fludioxonil] | 40.1 ± 3.5% | 67.2 ± 4.7% | 51.4 ± 2.9% | 
CC(=O)OCC(=O)[C@@]1(O)CC[C@H]2[C@@H]3CCC4=CC(=O)CC[C@]4(C)[C@@]3(F)[C@@H](O)C[C@@]21C [Fludrocortisone-21-acetate] |  |  |  | 46.7 ± 4.8%
O=C(NC(=O)c1c(F)cccc1F)Nc1ccc(Oc2ccc(C(F)(F)F)cc2Cl)cc1F [Flufenoxuron] | 25.7 ± 5.2% |  |  | 24 ± 6.8%
C#CCN1C(=O)COc2cc(F)c(N3C(=O)C4=C(CCCC4)C3=O)cc21 [Flumioxazin] | 40.9 ± 0.44% | 47.2 ± 4.8% | 5.96 ± 5.2% | 38.5 ± 7.6%

Second part, led by results:

chemical recovery [1] | chemical recovery [2] | chemical recovery [3] | SMILES | chemical recovery [4]
28.7 ± 6.6% |  |  | CCCCOC(=O)CCCCCCCCC(=O)OCCCC [Dibutyl-sebacate] | 
37.9 ± 3.7% | 42.3 ± 2.6% |  | COc1c(Cl)ccc(Cl)c1C(=O)O [Dicamba] | 
27.6 ± 3.1% | 37.7 ± 3.3% | 71.8 ± 3.4% | O=C(CC(C(=O)OC1CCCCC1)S(=O)(=O)O)OC1CCCCC1 (stereo not drawn) [Dicyclohexyl sulfosuccinate] | 37.1 ± 6.9%
44.3 ± 2.2% | 57.7 ± 5.7% |  | O=C(CC(C(=O)OC1CCCCC1)S(=O)(=O)O)OC1CCCCC1 (stereo not drawn) [Dicyclohexyl-sulfosuccinate] | 
56.9 ± 0.74% | 54.4 ± 4.7% | 78.6 ± 1.8% | O=C(NC1CCCCC1)NC1CCCCC1 [Dicyclohexylurea] | 
11.5 ± 3.1% |  |  | COCCOCCOC [Diglyme] | 
3.54 ± 6.1% |  |  | CC(=O)CCC1C(C)=CCCC1(C)C (stereo not drawn) [Dihydro-alpha-ionone] | 
12.9 ± 3.1% |  | 103 ± 14% | CC(C)CCCCOC(=O)c1ccccc1C(=O)OCCCCC(C)C [Diisoheptyl-phthalate] | 
 |  | 64.5 ± 14% | COC(=O)c1ccc(C(=O)OC)cc1 [Dimethyl-terephthalate] | 
39.3 ± 2.3% | 6.91 ± 1.9% | 73.8 ± 2% | Cc1c(N(C)C)c(=O)n(-c2ccccc2)n1C [Dimethylaminophenazone] | 
24.1 ± 2.6% | 0.267 ± 0.076% | 58.5 ± 5.4% | CC(C1=C(CCN(C)C)Cc2ccccc21)c1ccccn1 (stereo not drawn) [Dimetindene] | 
26.5 ± 1.6% |  |  | CCCCC(CC)COC(=O)CC(C(=O)OCC(CC)CCCC)S(=O)(=O)O (stereo not drawn) [Dioctylsulfosuccinate] | 
39.7 ± 11% |  | 80.2 ± 8.3% | CCN(CCC#N)c1ccc(N=Nc2c(Br)cc([N+](=O)[O-])cc2Br)cc1 [Disperse-Orange-61] | 
53.4 ± 0.92% | 47.4 ± 4.3% | 66.7 ± 1.7% | O=C1CCCCCCCCCCCN1 [Dodecane-12-lactam] | 
33.8 ± 0.79% |  |  | CCCCCCCCCCCCOS(=O)(=O)O [Dodecyl sulfate] | 
15.4 ± 9.1% |  | 54.1 ± 4.6% | Cc1ccc(O)c(-n2nc3ccccc3n2)c1 [Drometrizole] | 
34.8 ± 2.4% | 1.6 ± 0.45% | 59.7 ± 5.1% | CNCC[C@H](Oc1cccc2ccccc12)c1cccs1 [Duloxetine] | 
14.2 ± 4.3% |  | 71.1 ± 4.1% | Nc1nc(=O)n([C@@H]2CS[C@H](CO)O2)cc1F [Emtricitabine] | 
7.89 ± 2.1% |  | 15.3 ± 1.4% | O=C1C2CC3C1C1(Cl)C(Cl)C4(Cl)C2C3C1(Cl)C4(Cl)Cl (stereo not drawn) [Endrin ketone] | 
44.3 ± 4.6% |  |  | CCCCc1ncc(/C=C(\Cc2cccs2)C(=O)O)n1Cc1ccc(C(=O)O)cc1 [Eprosartan] | 
45.3 ± 3% | 56.1 ± 4% | 66.3 ± 2.4% | CCOC(=O)c1ccc(O)cc1 [Ethylparaben] | 
36.7 ± 2.9% | 35.4 ± 4.9% | 49.9 ± 9.2% | CCOC(=O)C(C#N)=C(c1ccccc1)c1ccccc1 [Etocrylene] | 
44.8 ± 1.8% | 42.8 ± 4.4% | 50.3 ± 6.1% | C=CCc1ccc(O)c(OC)c1 [Eugenol] | 
42.9 ± 4.1% | 41.2 ± 4.4% | 67.5 ± 3.3% | CC(Cc1ccc(C(C)(C)C(=O)O)cc1)CN1C[C@@H](C)O[C@@H](C)C1 (stereo partly drawn) [Fenpropimorph-acid] | 
46.9 ± 2.6% | 49.2 ± 5% | 74.6 ± 2.4% | CN(C)C(=O)Nc1ccccc1 [Fenuron] | 49.4 ± 5.9%
44.9 ± 11% | 58 ± 5.7% | 51.1 ± 1.4% | O=C(O)c1ccccc1Nc1cccc(C(F)(F)F)c1 [Flufenamic-acid] | 
